Data on nine compounds can be found in publication PMC10856564, “Metabolites from Streptomyces aureus (VTCC43181) and Their Inhibition of Mycobacterium tuberculosis ClpC1 Protein” (Molecules, 2024).

“Also recorded” adds a separate entry of the source.

Test [1] relates to ClpC1. The following applies: cited from earlier work; for ClpC1 inhibition: no reference at the place.
The next test concerns tuberculosis bacteria. Conditions: through targeting the regulatory protein ClpC1; cited from earlier work.
The conditions of test [2]: cited from earlier work. The method, then:
Compound 1 (7 mg) was afforded after purification using Sephadex and silica gel column chromatography, followed by thin-layer chromatography. This compound was obtained as a colorless powder.

Test [3] has as its system recombinant ClpC1 protein. Format: biochemical. Conditions: compounds at 0.1 µM, 1.0 µM, and 10.0 µM, released phosphate, BIOMOL Green, absorbance at 620 nm; for Affection of ATPase activity of ClpC1: controls ecumicin and rufomycin, values only in Figure 5.
The conditions of test [4]: cited from earlier work. Here is the method:
(§1) Compound 2 (3 mg) was yielded after column chromatography on normal-phase silica gel and the Sephadex LH20 column. Compound 2 (3 mg) was obtained as a white powder. […] The NMR data of compound 2 indicated a lactone ring structure consisting ...
The source holds these as a separate data set.

The subject of another test is leukocyte. Conditions: cited from earlier work. The method, then: as §1
The test system of the next test is HCV NS3 protease. The following applies: cited from earlier work. The method, then:
as §1

For test [5], the system named is ClpC1. The following applies: cited from earlier work.
The next test deals with ClpC1/CplP1/ClpP2. Conditions: via change in configuration of ClpC1; cited from earlier work.
Test [6] deals with Gr (+) and Gr (-) microbacteria. The following applies: in vitro; against Gr (+) and Gr (-) microbacteria; cited from earlier work. From the text:
Streptomyces aureus is a species of actinomycete belonging to the genus Streptomyces. Its spores are spherical or oval in shape, and the average diameter is about 0.9 μ in width and 1.2 μ in length. […] The morphological characteristics of the S. aureus depend on different nutritional environments. A previous study reported that many active secondary metabolites were produced by this actinomycete strain. Alkaloid azirinomycin and 3-methyl-2H-azirine-2-carboxylic acid isolated fr ...

The conditions of test [7]: cited from earlier work. Here is the method:
Compound 3 (12 mg) was obtained as a white solid. This compound was afforded after two reverse-phase column chromatography. […] In the ^1H NMR spectrum, ten signals of protons appeared at δH 3.57–3.54 (2H, m, α-H of Leu^1 & Leu^2), 3.50 (1H, d, J = 3.5, α-H of Ile), 3.43 (3H, d, J = 4.5, α-H of Ala^1, Ala^2, and Ala^3), 1.97–1.95 (1H, m, β-H of Ile), 1.83–1.77 (2H, m, γ-H of Leu^1, and Leu^2), 1.83–1.59 (4H, m, β-H of Leu^1, and Leu^ ...
This is another data set of the same source.

Regarding cyclomarin, the “effect on ATPase activity of ClpC1” value in the test on ClpC1 [1] was “shown to affect the ATPase activity of ClpC1”.
Cyclomarin A: the anti-tuberculosis activity entry with tuberculosis bacteria is reported as “anti-tuberculosis activity through the mechanism of targeting the regulatory protein ClpC1 of tuberculosis bacteria”.
For the compound `O=C1CCC(=O)N(O)CCCCCNC(=O)CCC(=O)N(O)CCCCCNC(=O)CCC(=O)N(O)CCCCCN1` [compound 1, nocardamin], in test [2], the antimalarial activity entry was “antimalarial activity” and the siderophore activity result is recorded as “showed siderophore activity”. Further, the “Affection of ATPase activity of ClpC1” value in test [3] was “did not affect the ATPase activity of ClpC1”.
On to `O=c1ccoc(=O)o1` [compound 2, 4H-1,3-dioxine-2,4-dione], for which the antioxidant activity entry in [4] was “possesses antioxidant activity”. For the same compound, in the test with leukocyte, the leukocyte inhibitory effects entry is given as “leukocyte inhibitory effects”. Besides, in the test with HCV NS3 protease, the IC50 is 78.9 µM. Further, the “Affection of ATPase activity of ClpC1” value in test [3] is on record as “did not affect the ATPase activity of ClpC1”.
Consider ecumicin, for which, in the test on ClpC1 [5], the “binding site on ClpC1” value is reported as “binded to the allosteric site of ClpC1, causing a change in configuration”. Besides, the effect on proteolysis entry in the test with ClpC1/CplP1/ClpP2 is “affecting proteolysis of ClpC1/CplP1/ClpP2”. Moreover, in the test with ClpC1 [1], the “effect on ATPase activity of ClpC1” value is “shown to affect the ATPase activity of ClpC1” and the ClpC1 inhibition entry is recorded as “inhibited ClpC1”.
Consider lassomycin, for which, in the test with ClpC1 [1], the “effect on ATPase activity of ClpC1” value is “shown to affect the ATPase activity of ClpC1” and the ClpC1 inhibition result is “inhibited ClpC1”.
rufomycin: in the test on ClpC1 [1], the “effect on ATPase activity of ClpC1” value was “shown to affect the ATPase activity of ClpC1” and the ClpC1 inhibition result was “inhibited ClpC1”.
Consider `CC1=NC1C(=O)O` (centres unmarked) [azirinomycin], for which the antibiotic activity entry in test [6] is reported as “exhibited broad-spectrum antibiotic activity in vitro”.
As to halolitoralin A [compound 3], the “ATP hydrolysis effect of ClpC1 compared with ecumicin” value in [3] (comparison with standard compound ecumicin) was “similarly to ecumicin, but with lower ATP hydrolysis affection; also recorded: affected the ATPase activity of ClpC1 in a similar way to the standard compound ecumicin; also recorded: showed the effect on the ATPase hydrolysis activity of ClpC1, acting similar way to the antibiotic eucumicin”. Besides, the “Affection of ATPase activity of ClpC1” value in [3] is given as “effective for the ATPase hydrolysis of the ClpC1 protein”. In addition, in test [7], the anthelmintic activity result was “anthelmintic activity” and the antimicrobial activity result was “potent antimicrobial activity”. The antitumor activities entry in test [7] (in vitro) is on record as “antitumor activities in vitro”.

The IC50 is the concentration at which inhibition is half-maximal.
